Key:
[1] = Inhibition of HCV genotype 1b NS5A infected in HuH-7-Luc/Neo-ET cells assessed as reduction in viral replication measured by Luciferase reporter gene assay
[2] = Inhibition of HCV genotype 1a NS5A infected in HuH-7-Luc/Neo-ET cells assessed as reduction in viral replication measured by Luciferase reporter gene assay

Row | SMILES | EC50 [1] [nM] | EC50 [2] [nM]
1 | COC(=O)N[C@H]1CCC[C@@H]2CC[C@@H](c3ncc(-c4ccc(-c5ccc(-c6cnc([C@@H]7CC8(CN7C(=O)[C@@H](NC(=O)OC)C(C)C)OCCO8)[nH]6)cc5)cc4)[nH]3)N2C1=O | 0.064 | 1.5
2 | COC(=O)N[C@H](C(=O)N1CC2(C[C@H]1c1ncc(-c3ccc(-c4ccc(-c5cnc([C@@H]6CC[C@@H]7CCC[C@@H](N(C)C)C(=O)N76)[nH]5)cc4)cc3)[nH]1)OCCO2)C(C)C | 0.217 | 119
3 | COC(=O)N[C@H](C(=O)N1CC2(C[C@H]1c1ncc(-c3ccc(-c4ccc(-c5cnc([C@@H]6CC[C@@H]7CCC[C@H](N(C)C)C(=O)N76)[nH]5)cc4)cc3)[nH]1)OCCO2)C(C)C | 0.209 | 32
4 | COC(=O)N[C@H](C(=O)N1CCC[C@H]1c1nc(-c2ccc(-c3ccc(-c4c[nH]c([C@@H]5CCCN5C(=O)[C@@H](NC(=O)OC)C(C)C)n4)cc3)cc2)c[nH]1)C(C)C [BMS-790052] | 0.032 | 0.079
5 | COC(=O)N[C@H](C(=O)N1CC2(C[C@H]1c1ncc(-c3ccc(-c4ccc(-c5cnc([C@@H]6CC[C@H]7CCC[C@H](N(C)C)C(=O)N76)[nH]5)cc4)cc3)[nH]1)OCCO2)C(C)C | 0.084 | 7.7
6 | COC(=O)N[C@H]1CCC[C@H]2CC[C@@H](c3ncc(-c4ccc(-c5ccc(-c6cnc([C@@H]7CCCN7C(=O)[C@@H](NC(=O)OC)C(C)C)[nH]6)cc5)cc4)[nH]3)N2C1=O | 0.109 | 17
7 | COC(=O)N[C@H](C(=O)N1CCC[C@H]1c1ncc(-c2ccc(-c3ccc(-c4cnc([C@@H]5CC[C@H]6CCC[C@@H](NC(=O)OC)C(=O)N65)[nH]4)cc3)cc2)[nH]1)C(C)C | 0.059 | 0.673
8 | COC(=O)N[C@H](C(=O)N1CCC[C@H]1c1ncc(-c2ccc(-c3ccc(-c4cnc([C@@H]5CC[C@@H]6CCC[C@@H](NC(=O)OC)C(=O)N65)[nH]4)cc3)cc2)[nH]1)C(C)C | 0.133 | 12
9 | COC(=O)N[C@H]1CCC[C@H]2CC[C@@H](c3ncc(-c4ccc(-c5ccc(-c6cnc([C@@H]7CC8(CN7C(=O)[C@@H](NC(=O)OC)C(C)C)OCCO8)[nH]6)cc5)cc4)[nH]3)N2C1=O | 0.046 | 8.6
10 | COC(=O)N[C@H]1CCC[C@@H]2CC[C@@H](c3ncc(-c4ccc(-c5ccc(-c6cnc([C@@H]7CCCN7C(=O)[C@@H](NC(=O)OC)C(C)C)[nH]6)cc5)cc4)[nH]3)N2C1=O | 0.037 | 0.471
11 | COC(=O)N[C@H](C(=O)N1CC2(C[C@H]1c1ncc(-c3ccc(-c4ccc(-c5cnc([C@@H]6CC[C@@H]7CCC[C@@H](NC(=O)OC)C(=O)N76)[nH]5)cc4)cc3)[nH]1)OCCO2)C(C)C | 0.08 | 15
12 | COC(=O)N[C@H](C(=O)N1CC2(C[C@H]1c1ncc(-c3ccc(-c4ccc(-c5cnc([C@@H]6CC[C@H]7CCC[C@@H](NC(=O)OC)C(=O)N76)[nH]5)cc4)cc3)[nH]1)OCCO2)C(C)C | 0.047 | 0.707
13 | COC(=O)N[C@H](C(=O)N1CC2(C[C@H]1c1ncc(-c3ccc(-c4ccc(-c5cnc([C@@H]6CC[C@H]7CCC[C@@H](N(C)C)C(=O)N76)[nH]5)cc4)cc3)[nH]1)OCCO2)C(C)C | 0.298 | 11

Reference: BindingDB's records for doi:10.1021/acsmedchemlett.1c00391 (Glaxosmithkline, 2021)
